In patent US9550772B2, “Azaindole derivatives as multi kinase inhibitors” (ORIBASE PHARMA, priority 2012, dated 2017) one finds inhibition and EC50 data, which are given here for ten compounds.

Usually inhibition stands for the percentage by which the read-out fell short of the control. As a reminder, the EC50 is the concentration giving half of the maximal effect.

For assay [1], the target named is T1, EGFR (ErbB1) (Homo sapiens, UniProt P00533).
T1 construct: purchased Invitrogen
Put plainly: In vitro kinase assay (Z'-LYTE, Invitrogen). In kind it is biochemical. As to conditions: compound at 100 nM, ATP Km apparent, read-out: % of inhibition of the kinase compared to the control. The protocol: (§1) The inhibitory activity of the compounds on 7 kinases (BRAF, EGFR (ErbB1), EGFR (ErbB1) T790M L858R, FGFR2, KDR (VEGFR2), PDGFRA (PDGFR alpha), SRC) was evaluated by Invitrogen using the Z′-LYTE® technology. Briefly, the Z′-LYTE® biochemical assay employs a fluorescence-based, coupled-enzyme format and is based on the differential sensitivity of phosphorylated and non-phosphorylated peptides to proteolytic cleavage. The peptide substrate is labeled with two fluorophores—one at each end—that make up a FRET pair. A ratiometric method, which calculates the ratio (the Emission Ratio) of donor emission to acceptor emission after excitation of the donor fluorophore at 400 nm, is used to quantitate reaction progress.
(§2) The compounds are screened in 1% DMSO (final) in the well. For 10 point titrations, 3-fold serial dilutions are conducted from the starting concentration. All Peptide/Kinase Mixtures are diluted to a 2× working concentration in the appropriate Kinase Buffer. All ATP Solutions are diluted to a 4× working concentration in Kinase Buffer (50 mM HEPES pH 7.5, 0.01% BRIJ-35, 10 mM MgCl2, 1 mM EGTA). ATP Km apparent is previously determined using a Z′-LYTE® assay.
(§3) Each compound was incubated at a concentration of 100 nM and the tables 21 to 27 summarize the results obtained showing the inhibitory power of a compound.

Assay [2] concerns the target T2, FGFR2 (Homo sapiens, UniProt P21802).
T2 construct: purchased Invitrogen
The assay can be described thus: In vitro kinase assay (Z'-LYTE, Invitrogen). In kind it is biochemical. The settings on record: compound at 100 nM, ATP Km apparent, read-out: % of inhibition of the kinase compared to the control. The protocol:
as §1, §2, §3

Assay [3] concerns the target T3, BRAF (Homo sapiens, UniProt P15056).
T3 construct: purchased Invitrogen
Put plainly: In vitro kinase assay (Z'-LYTE, Invitrogen). In kind it is biochemical. The settings on record: compound at 100 nM, ATP Km apparent, read-out: % of inhibition of the kinase compared to the control. The protocol:
as §1, §2, §3

Assay [4] addresses T4, KDR (VEGFR2) (Homo sapiens, UniProt P35968).
T4 construct: purchased Invitrogen
The assay can be described thus: In vitro kinase assay (Z'-LYTE, Invitrogen). In kind it is biochemical. The settings on record: compound at 100 nM, ATP Km apparent, read-out: % of inhibition of the kinase compared to the control. The protocol:
as §1, §2, §3

Assay [5] has as its target T5, PDGFRA (PDGFR alpha) (Homo sapiens, UniProt P16234).
T5 construct: purchased Invitrogen
The assay can be described thus: In vitro kinase assay (Z'-LYTE, Invitrogen). In kind it is biochemical. The settings on record: compound at 100 nM, ATP Km apparent, read-out: % of inhibition of the kinase compared to the control. The protocol:
as §1, §2, §3

The target in assay [6] is T6, SRC (Homo sapiens, UniProt P12931).
T6 construct: purchased Invitrogen
Put plainly: In vitro kinase assay (Z'-LYTE, Invitrogen). In kind it is biochemical. As to conditions: compound at 100 nM, ATP Km apparent, read-out: % of inhibition of the kinase compared to the control. The protocol:
as §1, §2, §3

For assay [7], the target named is T7, EGFR (ErbB1) T790M L858R (Homo sapiens, UniProt P00533, L858R/T790M).
T7 construct: purchased Invitrogen
The assay can be described thus: In vitro kinase assay (Z'-LYTE, Invitrogen). In kind it is biochemical. The settings on record: compound at 100 nM, ATP Km apparent, read-out: % of inhibition of the kinase compared to the control. The protocol:
as §1, §2, §3

The subject of assay [8] is HUVEC cells. The assay can be described thus: In vitro cell proliferation assay (MTT). In kind it is cell-based. The settings on record: Homo sapiens, 72 hr, read-out: EC50, anti-proliferative activity. The protocol: (§4) Cancer cell lines (5×10^3 cells per well) or HUVEC (1×10^4 cells per well) or HRMEC (1×10^4 cells per well) were distributed in 96-well plates and incubating in duplicate with escalating concentrations (10 nM to 3 μM) of compounds for 72 hr. Cell proliferation was measured using MTT (3[4,5-dimethylthiazol-2-yl]-2,5-diphenyltetrazolium bromide). The EC50 values were calculated from sigmoidal dose-response curves utilizing Prism 5.0 from Graph-Pad Software (GraphPad Software, La Jolla, Calif., USA), with values normalized to those of DMSO-treated control wells (0%) and 1% SDS control wells (100%).

The subject of assay [9] is MDA-MB-231 cell line. The assay can be described thus: In vitro cell proliferation assay (MTT). The settings on record: Homo sapiens, MDA-MB-231, 72 hr, read-out: EC50, anti-proliferative activity. In kind it is cell-based. The protocol:
as §4

Assay [10] deals with A549 cell line. The assay can be described thus: In vitro cell proliferation assay (MTT). In kind it is cell-based. The settings on record: Homo sapiens, A549, 72 h, read-out: EC50, anti-proliferative activity. The protocol: as §4
Assay [11] relates to HepG2 cell line. The assay can be described thus: In vitro cell proliferation assay (MTT). In kind it is cell-based. The settings on record: Homo sapiens, HepG2, 72 hr, read-out: EC50, anti-proliferative activity. The protocol: as §4
In assay [12] the test system is HeLa cell line. The assay can be described thus: In vitro cell proliferation assay (MTT). In kind it is cell-based. The settings on record: Homo sapiens, 72 hr, read-out: EC50, anti-proliferative activity. The protocol:
as §4

In assay [13] the test system is HuCCT1 cell line. Put plainly: In vitro cell proliferation assay (MTT). In kind it is cell-based. The settings on record: Homo sapiens, HuCCT-1, HuCCT1, 72 hr, EC50 ≧ 1 μM, read-out: EC50, anti-proliferative activity. The protocol:
as §4

The structures appear in SMILES notation. Like-named read-outs stand apart in the source and are kept apart here.

T4 sequence (P35968 20-1356): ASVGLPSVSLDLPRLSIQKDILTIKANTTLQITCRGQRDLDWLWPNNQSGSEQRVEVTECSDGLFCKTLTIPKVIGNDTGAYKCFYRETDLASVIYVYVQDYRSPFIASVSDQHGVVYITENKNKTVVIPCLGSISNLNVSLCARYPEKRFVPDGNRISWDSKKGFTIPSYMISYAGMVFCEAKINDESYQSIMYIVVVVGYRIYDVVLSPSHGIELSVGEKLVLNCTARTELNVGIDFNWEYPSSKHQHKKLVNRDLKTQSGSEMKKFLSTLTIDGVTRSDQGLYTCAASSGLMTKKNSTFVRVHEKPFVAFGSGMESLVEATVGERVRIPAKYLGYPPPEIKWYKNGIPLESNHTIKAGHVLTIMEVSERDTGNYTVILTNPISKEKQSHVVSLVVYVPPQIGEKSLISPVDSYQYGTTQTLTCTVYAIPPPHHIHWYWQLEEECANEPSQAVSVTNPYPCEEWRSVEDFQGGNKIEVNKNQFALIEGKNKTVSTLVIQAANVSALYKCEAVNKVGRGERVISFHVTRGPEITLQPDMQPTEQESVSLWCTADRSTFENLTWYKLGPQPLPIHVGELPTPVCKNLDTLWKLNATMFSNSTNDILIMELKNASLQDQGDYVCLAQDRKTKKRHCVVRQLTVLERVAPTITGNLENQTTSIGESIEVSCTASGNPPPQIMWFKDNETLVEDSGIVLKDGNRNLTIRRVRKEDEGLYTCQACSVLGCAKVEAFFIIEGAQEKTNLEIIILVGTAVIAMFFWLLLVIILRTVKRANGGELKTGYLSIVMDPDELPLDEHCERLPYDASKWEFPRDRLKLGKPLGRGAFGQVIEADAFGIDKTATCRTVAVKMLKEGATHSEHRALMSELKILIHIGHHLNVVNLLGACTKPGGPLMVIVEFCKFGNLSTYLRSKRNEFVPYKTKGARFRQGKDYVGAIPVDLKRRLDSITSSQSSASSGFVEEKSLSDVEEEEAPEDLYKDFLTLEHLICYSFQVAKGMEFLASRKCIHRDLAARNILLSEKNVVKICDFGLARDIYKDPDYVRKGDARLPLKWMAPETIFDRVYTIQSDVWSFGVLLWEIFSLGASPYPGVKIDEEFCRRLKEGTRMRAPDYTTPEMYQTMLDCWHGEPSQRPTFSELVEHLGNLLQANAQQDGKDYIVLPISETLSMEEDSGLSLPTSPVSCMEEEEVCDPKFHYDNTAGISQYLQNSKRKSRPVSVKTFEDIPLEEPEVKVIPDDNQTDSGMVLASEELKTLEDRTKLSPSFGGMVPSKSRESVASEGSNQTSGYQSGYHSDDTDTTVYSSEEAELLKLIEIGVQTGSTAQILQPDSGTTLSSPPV
T5 sequence (P16234 24-1089): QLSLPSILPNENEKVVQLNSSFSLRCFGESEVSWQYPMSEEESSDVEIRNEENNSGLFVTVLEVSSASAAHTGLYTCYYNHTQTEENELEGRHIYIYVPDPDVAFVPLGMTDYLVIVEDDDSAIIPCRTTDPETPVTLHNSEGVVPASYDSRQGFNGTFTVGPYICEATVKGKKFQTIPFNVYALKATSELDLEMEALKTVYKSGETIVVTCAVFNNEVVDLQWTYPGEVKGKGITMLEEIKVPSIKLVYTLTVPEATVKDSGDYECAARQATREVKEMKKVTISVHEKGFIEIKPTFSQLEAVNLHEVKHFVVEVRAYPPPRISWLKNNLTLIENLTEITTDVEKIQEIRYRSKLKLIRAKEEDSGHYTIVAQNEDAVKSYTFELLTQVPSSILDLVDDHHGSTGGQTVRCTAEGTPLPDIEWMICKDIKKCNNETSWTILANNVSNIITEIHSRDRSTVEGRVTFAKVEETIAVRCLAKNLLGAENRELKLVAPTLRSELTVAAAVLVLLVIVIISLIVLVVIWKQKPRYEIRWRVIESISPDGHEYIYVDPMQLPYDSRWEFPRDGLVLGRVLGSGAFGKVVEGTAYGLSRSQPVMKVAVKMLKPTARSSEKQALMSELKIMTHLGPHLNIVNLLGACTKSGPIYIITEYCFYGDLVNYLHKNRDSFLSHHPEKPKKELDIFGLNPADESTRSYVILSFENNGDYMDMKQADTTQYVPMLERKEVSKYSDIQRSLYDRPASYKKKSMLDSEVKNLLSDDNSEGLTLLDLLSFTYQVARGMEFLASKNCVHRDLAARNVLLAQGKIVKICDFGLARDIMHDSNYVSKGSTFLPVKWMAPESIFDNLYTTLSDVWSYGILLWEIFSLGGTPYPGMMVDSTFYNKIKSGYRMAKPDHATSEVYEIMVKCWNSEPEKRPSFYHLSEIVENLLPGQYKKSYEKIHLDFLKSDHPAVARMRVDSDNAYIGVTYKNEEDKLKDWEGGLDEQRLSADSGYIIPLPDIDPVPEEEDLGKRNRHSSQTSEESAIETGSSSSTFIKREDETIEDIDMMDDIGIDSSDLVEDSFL
T6 sequence (P12931 whole entry): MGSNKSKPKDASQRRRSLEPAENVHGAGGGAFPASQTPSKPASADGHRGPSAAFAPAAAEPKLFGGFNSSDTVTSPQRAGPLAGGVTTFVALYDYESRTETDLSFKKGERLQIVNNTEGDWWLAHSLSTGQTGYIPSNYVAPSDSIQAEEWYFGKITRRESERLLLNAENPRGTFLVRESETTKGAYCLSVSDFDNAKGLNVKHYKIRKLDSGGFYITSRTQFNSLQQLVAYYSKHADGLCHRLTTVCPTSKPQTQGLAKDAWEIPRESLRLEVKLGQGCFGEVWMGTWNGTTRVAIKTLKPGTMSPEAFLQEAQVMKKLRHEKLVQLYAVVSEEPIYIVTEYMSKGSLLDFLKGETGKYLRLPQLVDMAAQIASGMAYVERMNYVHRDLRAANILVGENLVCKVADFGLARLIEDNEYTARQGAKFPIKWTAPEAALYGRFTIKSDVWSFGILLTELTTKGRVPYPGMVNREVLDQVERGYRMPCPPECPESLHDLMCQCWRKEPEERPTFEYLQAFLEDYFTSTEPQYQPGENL
T3 sequence (P15056 whole entry): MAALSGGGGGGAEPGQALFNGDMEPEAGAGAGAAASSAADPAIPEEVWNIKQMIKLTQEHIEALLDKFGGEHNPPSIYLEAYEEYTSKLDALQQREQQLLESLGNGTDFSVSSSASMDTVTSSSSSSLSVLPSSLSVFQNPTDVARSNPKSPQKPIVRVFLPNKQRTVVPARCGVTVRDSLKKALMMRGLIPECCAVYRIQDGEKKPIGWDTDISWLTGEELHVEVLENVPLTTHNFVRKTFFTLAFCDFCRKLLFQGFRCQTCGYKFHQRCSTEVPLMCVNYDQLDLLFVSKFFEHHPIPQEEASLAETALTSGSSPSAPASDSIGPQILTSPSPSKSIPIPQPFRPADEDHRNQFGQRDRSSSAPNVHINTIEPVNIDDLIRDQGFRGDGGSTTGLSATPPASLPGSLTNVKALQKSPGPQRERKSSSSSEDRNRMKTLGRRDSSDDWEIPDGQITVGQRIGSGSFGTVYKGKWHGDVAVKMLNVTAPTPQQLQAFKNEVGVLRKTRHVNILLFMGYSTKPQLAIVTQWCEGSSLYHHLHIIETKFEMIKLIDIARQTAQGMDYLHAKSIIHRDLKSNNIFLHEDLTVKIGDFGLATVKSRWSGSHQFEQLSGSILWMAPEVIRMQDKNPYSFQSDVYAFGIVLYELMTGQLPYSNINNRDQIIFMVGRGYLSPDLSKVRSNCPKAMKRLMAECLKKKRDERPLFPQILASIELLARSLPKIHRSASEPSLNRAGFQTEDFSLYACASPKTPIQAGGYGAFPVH
T1 sequence (P00533 25-1210): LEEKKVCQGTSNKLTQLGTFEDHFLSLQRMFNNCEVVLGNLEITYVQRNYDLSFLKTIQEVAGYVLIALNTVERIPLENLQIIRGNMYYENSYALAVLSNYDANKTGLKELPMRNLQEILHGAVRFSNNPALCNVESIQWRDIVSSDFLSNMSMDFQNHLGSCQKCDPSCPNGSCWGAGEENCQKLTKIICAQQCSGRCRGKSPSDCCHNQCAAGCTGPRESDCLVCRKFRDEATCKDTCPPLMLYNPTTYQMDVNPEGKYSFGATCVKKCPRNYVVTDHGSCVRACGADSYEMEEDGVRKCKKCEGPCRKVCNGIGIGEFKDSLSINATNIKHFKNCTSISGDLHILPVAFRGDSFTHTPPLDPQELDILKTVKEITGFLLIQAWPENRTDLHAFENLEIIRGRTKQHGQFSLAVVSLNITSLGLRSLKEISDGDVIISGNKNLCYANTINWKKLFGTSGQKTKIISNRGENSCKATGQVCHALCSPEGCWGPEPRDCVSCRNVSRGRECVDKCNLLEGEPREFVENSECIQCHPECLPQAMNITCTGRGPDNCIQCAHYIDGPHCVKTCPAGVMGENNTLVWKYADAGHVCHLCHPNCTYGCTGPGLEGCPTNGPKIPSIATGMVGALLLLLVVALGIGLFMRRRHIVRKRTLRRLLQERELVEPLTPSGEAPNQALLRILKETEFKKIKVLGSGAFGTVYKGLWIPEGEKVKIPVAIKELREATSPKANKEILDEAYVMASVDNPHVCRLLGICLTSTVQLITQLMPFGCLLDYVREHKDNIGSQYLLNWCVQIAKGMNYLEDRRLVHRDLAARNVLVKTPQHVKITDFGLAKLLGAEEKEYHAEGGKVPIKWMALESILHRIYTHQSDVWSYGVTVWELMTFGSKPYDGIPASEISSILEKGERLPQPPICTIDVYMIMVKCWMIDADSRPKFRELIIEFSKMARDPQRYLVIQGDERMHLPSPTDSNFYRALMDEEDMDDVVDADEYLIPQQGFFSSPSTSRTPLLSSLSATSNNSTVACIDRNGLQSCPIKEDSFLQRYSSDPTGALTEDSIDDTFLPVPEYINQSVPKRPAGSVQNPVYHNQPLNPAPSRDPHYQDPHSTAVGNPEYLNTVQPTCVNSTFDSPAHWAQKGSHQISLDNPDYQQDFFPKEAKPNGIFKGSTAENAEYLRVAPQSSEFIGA

On to `CC(=O)c1cc2cc(C(=O)Nc3cc(NC(=O)c4ccc(CN5CCN(C)CC5)c(C(F)(F)F)c4)ccc3C)cnc2[nH]1` [OR0724, 2-Acetyl-1H-pyrrolo[2,3-b]pyridine-5-carboxylic acid {2-methyl-5-[4-(4-methyl-piperazin-1-ylmethyl)-3-trifluoromethyl-benzoylamino]-phenyl}-amide], for which the inhibition at 0.1 µM was at least 50% in [1]; under 50% in assay [2]; under 50% in assay [3]; under 50% in [4]; under 50% in assay [5]; under 50% in assay [6]. In [7], the inhibition at 0.1 µM was at least 50%.
On to `COC(=O)c1cc2cc(CNC(=O)c3cc(NC(=O)c4ccc(CN5CCN(C)CC5)c(C(F)(F)F)c4)ccc3C)cnc2[nH]1` [OR0728, 5-({2-Methyl-5-[4-(4-methyl-piperazin-1-ylmethyl)-3-trifluoromethyl-benzoylamino]-benzoylamino}-methyl)-1H-pyrrolo[2,3-b]pyridine-2-carboxylic acid methyl ester], for which the inhibition at 0.1 µM in [1] is under 50%; in assay [2], under 50%; in assay [3] it was under 50%; in assay [4] it was under 50%; in [5] it was at least 50%; in assay [6] it was under 50%. In addition, the inhibition at 0.1 µM in assay [7] is under 50%.
As for `COC(=O)c1cc2cc(CSc3cccc(NC(=O)c4cccc(C(F)(F)F)c4)c3)cnc2[nH]1` [OR1066, 5-[3-(3-Trifluoromethyl-benzoylamino)-phenylsulfanylmethyl]-1H-pyrrolo[2,3-b]pyridine-2-carboxylic acid methyl ester], the EC50 in assay [8] (EC50 ≧ 1 μM), in assay [9] (EC50 ≧ 1 μM), in assay [10] (EC50 ≧ 1 μM), in [11] (EC50 ≧ 1 μM) and in [12] (EC50 ≧ 1 μM) was at least 1000 nM throughout. The inhibition at 0.1 µM is under 50% in assay [1]; under 50% in assay [2]; under 50% in [3]; at least 50% in [4]; at least 50% in assay [5]; under 50% in assay [6].
On to `COC(=O)c1cc2cc(CCc3cccc(NC(=S)Cc4cccc(C(F)(F)F)c4)c3)cnc2[nH]1` [OR1014, 5-(2-{3-[2-(3-Trifluoromethyl-phenyl)-thioacetylamino]-phenyl}-ethyl)-1H-pyrrolo[2,3-b]pyridine-2-carboxylic acid methyl ester], for which the EC50 was 100 to 1000 nM in [8] (100 nM < EC50 < 1 μM); at least 1000 nM in assay [9] (EC50 ≧ 1 μM); at least 1000 nM in assay [10] (EC50 ≧ 1 μM); at least 1000 nM in [11] (EC50 ≧ 1 μM); at least 1000 nM in assay [12] (EC50 ≧ 1 μM). Also, the inhibition at 0.1 µM in [1], in [2], in assay [3], in assay [4], in assay [5] and in assay [6] was under 50% throughout.
In the case of `CC(=O)c1cc2cc(CCc3cc(NC(=O)c4cc(N5CCN(C)CC5)cc(C(F)(F)F)c4)ccc3C)cnc2[nH]1` [OR1059, N-{3-[2-(2-Acetyl-1H-pyrrolo[2,3-b]pyridin-5-yl)-ethyl]-4-methyl-phenyl}-3-(4-methyl-piperazin-1-yl)-5-trifluoromethyl-benzamide], the EC50 was at least 1000 nM in assay [8] (EC50 ≧ 1 μM); 100 to 1000 nM in [9] (100 nM < EC50 < 1 μM); 100 to 1000 nM in assay [10] (100 nM < EC50 < 1 μM); 100 to 1000 nM in assay [11] (100 nM < EC50 < 1 μM); 100 to 1000 nM in assay [12] (100 nM < EC50 < 1 μM). The inhibition at 0.1 µM in assay [1], in [2], in assay [3], in assay [4], in assay [5] and in assay [6] was at least 50% in each case.
On to `COC(=O)c1cc2cc(C=Nc3cc(NC(=O)c4ccc(CN5CCN(C)CC5)c(C(F)(F)F)c4)ccc3C)cnc2[nH]1` [OR1070, 5-({2-Methyl-5-[4-(4-methyl-piperazin-1-ylmethyl)-3-trifluoromethyl-benzoylamino]-phenylimino}-methyl)-1H-pyrrolo[2,3-b]pyridine-2-carboxylic acid methyl ester], for which the EC50 in [8] (EC50 ≧ 1 μM), in assay [9] (EC50 ≧ 1 μM), in [10] (EC50 ≧ 1 μM), in assay [11] (EC50 ≧ 1 μM) and in [12] (EC50 ≧ 1 μM) was at least 1000 nM in each case. In addition, the inhibition at 0.1 µM in assay [1] was at least 50%; in assay [2], at least 50%; in assay [3] it was under 50%; in assay [4] it was at least 50%; in [5] it was at least 50%; in assay [6] it was at least 50%.
`CC(=O)c1cc2cc(CCc3cc(NC(=O)Cc4cccc(C(F)(F)F)c4)ccc3C)cnc2[nH]1` [OR0966, N-{3-[2-(2-Acetyl-1H-pyrrolo[2,3-b]pyridin-5-yl)-ethyl]-4-methyl-phenyl}-2-(3-trifluoromethyl-phenyl)-acetamide]: the EC50 in [8] (EC50 ≧ 1 μM) is at least 1000 nM; in assay [9] (EC50 ≧ 1 μM) it was at least 1000 nM; in [10] (EC50 ≧ 1 μM), at least 1000 nM; in assay [11] (100 nM < EC50 < 1 μM) it was 100 to 1000 nM; in assay [12] (EC50 ≧ 1 μM), at least 1000 nM. The inhibition at 0.1 µM in [1] is under 50%; in assay [2], under 50%; in assay [3] it was at least 50%; in [4], under 50%; in [5], under 50%; in assay [6] it was under 50%.
Regarding `COC(=O)c1cc2cc(CCc3cc(NC(=O)C4CCC(C(F)(F)F)CC4)ccc3C)cnc2[nH]1` (stereo not shown) [OR1057, 5-(2-{2-Methyl-5-[(4-trifluoromethyl-cyclohexanecarbonyl)-amino]-phenyl)-ethyl)-1H-pyrrolo[2,3-b]pyridine-2-carboxylic acid methyl ester], the EC50 in assay [8] (EC50 ≧ 1 μM), in assay [9] (EC50 ≧ 1 μM), in assay [10] (EC50 ≧ 1 μM), in assay [11] (EC50 ≧ 1 μM) and in assay [12] (EC50 ≧ 1 μM) was at least 1000 nM throughout. Moreover, the inhibition at 0.1 µM in assay [1] was at least 50%; in [2] it was under 50%; in assay [3], under 50%; in assay [4], under 50%; in assay [5], at least 50%; in [6], at least 50%.
Take `Cc1nc(Nc2ncc(C(=O)Nc3c(C)cccc3Cl)s2)cc(N2CCN(CCO)CC2)n1` [Dasatinib, reference compound]: the EC50 in assay [8] (EC50 ≧ 1 μM), in assay [11] (EC50 ≧ 1 μM) and in assay [13] was at least 1000 nM in each case.
With `COC(=O)c1cc2cc(CCc3ccc(C)c(NC(=O)c4cc(-n5cnc(C)c5)cc(C(F)(F)F)c4)c3)cnc2[nH]1` [OR1068, 5-(2-{4-Methyl-3-[3-(4-methyl-imidazol-1-yl)-5-trifluoromethyl-benzoylamino]-phenyl}-ethyl)-1H-pyrrolo[2,3-b]pyridine-2-carboxylic acid methyl ester], the EC50 was 100 to 1000 nM in assay [8] (100 nM < EC50 < 1 μM); at least 1000 nM in assay [9] (EC50 ≧ 1 μM); at least 1000 nM in assay [10] (EC50 ≧ 1 μM); at least 1000 nM in assay [11] (EC50 ≧ 1 μM); at least 1000 nM in assay [12] (EC50 ≧ 1 μM). For the same compound, the inhibition at 0.1 µM is at least 50% in [1]; at least 50% in [2]; under 50% in assay [3]; at least 50% in assay [4]; at least 50% in assay [5]; at least 50% in [6].
